Our source for the MIC values is ChEMBL document CHEMBL4184145, “Synthesis and structure-activity relationship of teixobactin analogues via convergent Ser ligation” (2017).

For assay [1], the system named is Staphylococcus aureus. Kind of assay: Antibacterial activity against methicillin-susceptible Staphylococcus aureus ATCC 29213 by broth dilution assay. The class given is functional. For orientation: Broth dilution looks for growth in wells or tubes with falling amounts of substance.
The subject of assay [2] is Staphylococcus aureus. Kind of assay: Antibacterial activity against methicillin-resistant Staphylococcus aureus clinical isolate SA86 by broth dilution assay. The class given is functional.

In brackets after ≈: the same amount, converted by molar mass. Some results are limits rather than exact numbers.

Consider `CC[C@@H](C)[C@@H](NC(=O)[C@@H](CCC(N)=O)NC(=O)[C@H](CO)NC(=O)[C@@H](NC(=O)[C@@H](Cc1ccccc1)NC)[C@@H](C)CC)C(=O)N[C@H](C(=O)N[C@@H](CO)C(=O)N[C@H]1C(=O)N[C@@H](Cc2ccccc2)C(=O)N[C@@H](CCCN)C(=O)N[C@@H]([C@@H](C)CC)C(=O)O[C@H]1C)[C@@H](C)CC`, for which the MIC in the assay on Staphylococcus aureus [1] and against Staphylococcus aureus [2] was at least 32 µg/mL in each case.
Consider `CC[C@@H](C)[C@@H](NC(=O)[C@@H](CCC(N)=O)NC(=O)[C@H](CO)NC(=O)[C@@H](NC(=O)[C@@H](Cc1ccccc1)NC)[C@@H](C)CC)C(=O)N[C@H](C(=O)N[C@@H](CO)C(=O)N[C@H]1C(=O)N[C@@H](C)C(=O)N[C@@H](CCCN)C(=O)N[C@@H](CC(C)C)C(=O)O[C@H]1C)[C@@H](C)CC`, for which the MIC against Staphylococcus aureus [1] and against Staphylococcus aureus [2] was at least 32 µg/mL in each case.
On to `CC[C@@H](C)[C@@H](NC(=O)[C@@H](CCC(N)=O)NC(=O)[C@H](CO)NC(=O)[C@@H](NC(=O)[C@@H](Cc1ccccc1)NC)[C@@H](C)CC)C(=O)N[C@H](C(=O)N[C@@H](CO)C(=O)N[C@H]1C(=O)N[C@@H](CCCN)C(=O)N[C@@H](CCCN)C(=O)N[C@@H]([C@@H](C)CC)C(=O)O[C@H]1C)[C@@H](C)CC`, for which the minimum inhibitory concentration (MIC) in the assay with Staphylococcus aureus [1] and with Staphylococcus aureus [2] was 8 µg/mL (≈ 6.42 µM) throughout.
For the molecule `CC[C@@H](C)[C@@H](NC(=O)[C@@H](CCC(N)=O)NC(=O)[C@H](CO)NC(=O)[C@@H](NC(=O)[C@@H](Cc1ccccc1)NC)[C@@H](C)CC)C(=O)N[C@H](C(=O)N[C@@H](CO)C(=O)N[C@H]1C(=O)N[C@@H](C)C(=O)N[C@@H](CCCN)C(=O)N[C@@H](C(C)C)C(=O)O[C@H]1C)[C@@H](C)CC`, the MIC in the assay on Staphylococcus aureus [1] and against Staphylococcus aureus [2] was 8 µg/mL (≈ 6.73 µM) each time.
